Tested on: U937 cells
Assay: Morphology and apoptosis/necrosis in U937 cells (Giemsa; annexin V-FITC/PI flow cytometry)
Assay type: cell-based, human
Settings: Compound No.1 30 μM, Compound No.7 15 μM, 24 hours, annexin V-FITC/PI
Procedure: U937 cells were treated with standard growth medium alone or with standard growth medium containing hydroxychavicol (30 μM) for 24 hours. Treated and untreated cells were stained with Giemsa and viewed under microscope (magnification ×1000). For measurement of apoptosis/necrosis, cells were left untreated or treated with Compound No. 1 (30 μM) or Compound No.7 (15 μM) for 24 hours. After washing, cells were stained with fluorescein isothiocyanate (FITC)-conjugated annexin V and propidium iodide (PI) and analysed in a flow cytometer (BD LSR, Becton Dickinson).
FIG. 2B indicates flow cytometric determination of apoptosis and necrosis by Compound No.1 (hydroxychavicol) and Compound No.7. Apoptosis and necrosis of U937 cells were induced. Cells were left untreated (extreme left panel), or incubated with Compound No.1 (30 μM) (middle panel) or Compound No.7 (extreme right panel) (15 μM) for 24 hours and processed for flow cytometry after staining with annexin V-FITC and propidium iodide (PI). Viable cells are in the lower left quadrant (stained neither by annexin V nor by PI), early apoptotic cells (stained by annexin V only) are in the lower right quadrant, late-stage apoptotic cells (stained by both annexin V and PI) are in the upper right quadrant and the necrotic cells (stained by PI only) are in the upper left quadrant.

SMILES | Apoptosis and necrosis of U937 cells by flow cytometry
C=CCc1ccc(OC(C)=O)c(OC(C)=O)c1 [Compound 7, 4-allyl-1,2-phenylene diacetate] | induce apoptosis and necrosis

Tested on: acute myeloid leukemia cell line HL60
Assay: Cell viability, trypan blue exclusion, HL-60
Assay type: cell-based
Settings: Homo sapiens, 72 hours incubation, trypan blue exclusion, read-out: Activity (IC50) HL-60
Description: (§1) Following cancer cell lines were used: chronic myeloid leukemia cell lines K562, KU812; acute myeloid leukemia cell lines HL60, U937; T-lymphoblastic leukemia cell line Molt-4; prostate cancer cell line PC-3; breast cancer cell line MCF-7; pancreatic cancer cell line MIA PaCa-2. These cancer cell lines were maintained in tissue culture in standard growth medium containing 10% heat-inactivated fetal bovine serum (FBS). Normal human peripheral blood mononuclear cells (PBMC) were separated from whole blood by Ficoll/Hypaque density gradient centrifugation. Peripheral blood samples were collected from normal donors with due approval from the Human Ethics Committee of Indian Institute of Chemical Biology, Kolkata, India, and all experiments with human blood were conducted under an approved institutional Human Ethics committee protocol. Informed consent was provided according to the Declaration of Helsinki. Cancer cell lines and PBMC (5×10^3) in triplicate were incubated in 0.2 mL of standard growth medium containing 10% FBS with varying concentrations of test compounds of the present invention. After 72 hours of incubation, cells were collected by centrifugation (at 1000 g for 5 minutes) and cell-viability was determined by the trypan blue exclusion assay. At least 200 cells were examined in each sample. Because of monolayer culture, treated and untreated PC-3, MCF-7 and MIA PaCa-2 cells were detached from the wells by treatment with Cell Dissociation Solution (Sigma Chemical, St. Louis, Mo.) before counting. Data are represented as IC50 (minimum concentration required to inhibit the viability by 50%) in Table 5.

SMILES | IC50 [µM]
C=CCc1cc(O)c(O)cc1CC=C [Compound 2, 4,5-diallylbenzene-1,2-diol] | 25
C=CCc1ccc(O)c(O)c1CC=C [Compound 3, 3,4-diallylbenzene-1,2-diol] | 60
C=CCc1ccc(OC(C)=O)c(OC(C)=O)c1 [Compound 7, 4-allyl-1,2-phenylene diacetate] | 15
CC(C)(C=NO)c1ccc(O)c(O)c1 [Compound 9, 2-(3,4-dihydroxyphenyl)-2-methylpropanal oxime] | 64
CC(C)(C#N)c1ccc(O)c(O)c1 [Compound 10, 2-(3,4-dihydroxyphenyl)-2-methylpropanenitrile] | 110

Same assay, conditions: Homo sapiens, range over both cell lines HL60 and U937 and over the listed compounds, read-out: IC50 against acute myeloid leukemia cancer cell line (HL60, U937)

SMILES | IC50 [µM]
C=CCc1cc(O)c(O)cc1CC=C [Compound 2, 4,5-diallylbenzene-1,2-diol] | 13 to 60
C=CCc1ccc(O)c(O)c1CC=C [Compound 3, 3,4-diallylbenzene-1,2-diol] | 13 to 60
C=CCc1ccc(OC(C)=O)c(OC(C)=O)c1 [Compound 7, 4-allyl-1,2-phenylene diacetate] | 13 to 60

Tested on: Ehrlich ascites carcinoma (EAC)
Assay: Ehrlich ascites carcinoma (EAC) model in vivo
Settings: 30 mg/kg body weight intraperitoneally thrice a week for three weeks, Swiss albino mice
Description: The in vitro studies indicate that hydroxychavicol and other compounds of the present invention induce killing of a variety of cancer cell lines including breast cancer cell line MCF-7 (Table 5). The MCF-7 cell line is of epithelial origin. Studies were extended in vivo in mouse model for a tumor of epithelial origin. Ehrlich ascites carcinoma is a tumor of epithelial origin (Cancer Research, 1958, 18, 1167-1185). EAC was established in Swiss albino mice as described (Biochemical and Biophysical Research Communications, 2001, 288, 658-665). Swiss albino mice were injected with EAC (2×10^6 cells/mouse) intraperitoneally. 2 days post-injection of tumor cells, these mice (5 per group) were injected intraperitoneally with Compound No. 1 (hydroxychavicol) (30 mg/kg body weight) or Compound No. 7 (30 mg/kg body weight) thrice a week for three weeks. One week after the last injection, mice were sacrificed, and viable cells from peritoneal cavity were counted microscopically. Vehicle (dimethyl sulphoxide [DMSO], 0.1%) was used as control.

SMILES | In vivo efficacy against EAC tumor (viable cells from peritoneal cavity)
C=CCc1ccc(OC(C)=O)c(OC(C)=O)c1 [Compound 7, 4-allyl-1,2-phenylene diacetate] | effective in vivo in destroying EAC tumor

Tested on: not listed separately
Assay: Sensitivity to spontaneous autooxidation (H2O2 level, TMB reagent)
Assay type: physicochemical
Settings: 30 µM, 30 min and 2 hr in medium alone, with and without Catalase; H2O2 in supernatant
Procedure: Spontaneous autooxidation of compounds having phenolic groups produce reactive oxygen species like H2O2. The enzyme Catalase breaks down H2O2 to water, We therefore incubated Compound 1 and 7 (30 µM each) for 30 min and 2 hr in medium alone in the presence and absence of Catalase. Level of H2O2 in the supernatant was then measured as reported using 3,5,3′,5′-tetramethylbenzidine (TMB) reagent (Plant Physiology, 2004, 136, 3114-3123). FIG. 1 represents the data of sensitivity of spontaneous autooxidation of Compound 1 and Compound 7.

SMILES | Sensitivity to spontaneous autooxidation
C=CCc1ccc(OC(C)=O)c(OC(C)=O)c1 [Compound 7, 4-allyl-1,2-phenylene diacetate] | resistant to spontaneous autooxidation

Tested on: chronic myeloid leukemia cell line K562
Assay: Cell viability, trypan blue exclusion, K562
Assay type: cell-based
Settings: Homo sapiens, K562; 72 hours incubation, trypan blue exclusion; read-out: Activity (IC50) K562
Description: as §1

SMILES | IC50 [µM]
C=CCc1cc(O)c(O)cc1CC=C [Compound 2, 4,5-diallylbenzene-1,2-diol] | 13
C=CCc1ccc(O)c(O)c1CC=C [Compound 3, 3,4-diallylbenzene-1,2-diol] | 52
C=CCc1ccc(OC(C)=O)c(OC(C)=O)c1 [Compound 7, 4-allyl-1,2-phenylene diacetate] | 13
CC(C)(C=NO)c1ccc(O)c(O)c1 [Compound 9, 2-(3,4-dihydroxyphenyl)-2-methylpropanal oxime] | 64
CC(C)(C#N)c1ccc(O)c(O)c1 [Compound 10, 2-(3,4-dihydroxyphenyl)-2-methylpropanenitrile] | 113

Same assay, conditions: Homo sapiens, read-out: IC50 against chronic myeloid leukemia cancer cell lines (K562); range over both cell lines K562, KU812 and KU812 and over the listed compounds; read-out: IC50 against chronic myeloid leukemia cancer cell lines (K562, KU812)

SMILES | IC50 [µM]
C=CCc1cc(O)c(O)cc1CC=C [Compound 2, 4,5-diallylbenzene-1,2-diol] | 13 to 52
C=CCc1ccc(O)c(O)c1CC=C [Compound 3, 3,4-diallylbenzene-1,2-diol] | 13 to 52
C=CCc1ccc(OC(C)=O)c(OC(C)=O)c1 [Compound 7, 4-allyl-1,2-phenylene diacetate] | 13 to 52

Tested on: normal human PBMC
Assay: Apoptosis/necrosis of normal human PBMC by flow cytometry
Assay type: cell-based
Settings: 30 μM, 24 hours
Procedure: FIG. 2C indicates flow cytometric determination of apoptosis and necrosis of normal human PBMC by Compound 1 (30 μM) and Compound 7 (30 μM) after incubation for 24 hours.

SMILES | Apoptosis and necrosis of normal human PBMC by flow cytometry
C=CCc1ccc(OC(C)=O)c(OC(C)=O)c1 [Compound 7, 4-allyl-1,2-phenylene diacetate] | remained unaffected

Tested on: breast cancer cell line MCF-7
Assay: Cell viability, trypan blue exclusion, MCF-7
Assay type: cell-based, human
Settings: 72 hours incubation
Description: as §1

SMILES | IC50 [µM]
C=CCc1cc(O)c(O)cc1CC=C [Compound 2, 4,5-diallylbenzene-1,2-diol] | 40
C=CCc1ccc(O)c(O)c1CC=C [Compound 3, 3,4-diallylbenzene-1,2-diol] | 70
C=CCc1ccc(OC(C)=O)c(OC(C)=O)c1 [Compound 7, 4-allyl-1,2-phenylene diacetate] | 25

Same assay, conditions: Homo sapiens, MCF7, 72 h, 72 hours incubation

SMILES | IC50 [µM]
C=CCc1cc(O)c(O)cc1CC=C [Compound 2, 4,5-diallylbenzene-1,2-diol] | 25 to 70
C=CCc1ccc(OC(C)=O)c(OC(C)=O)c1 [Compound 7, 4-allyl-1,2-phenylene diacetate] | 25 to 70
CC(C)(C=NO)c1ccc(O)c(O)c1 [Compound 9, 2-(3,4-dihydroxyphenyl)-2-methylpropanal oxime] | 85
CC(C)(C#N)c1ccc(O)c(O)c1 [Compound 10, 2-(3,4-dihydroxyphenyl)-2-methylpropanenitrile] | 100

Tested on: chronic myeloid leukemia cell line KU812
Assay: Cell viability, trypan blue exclusion, KU812
Assay type: cell-based
Settings: Homo sapiens, 72 hours incubation
Description: as §1

SMILES | IC50 [µM]
C=CCc1cc(O)c(O)cc1CC=C [Compound 2, 4,5-diallylbenzene-1,2-diol] | 25
C=CCc1ccc(OC(C)=O)c(OC(C)=O)c1 [Compound 7, 4-allyl-1,2-phenylene diacetate] | 15
CC(C)(C=NO)c1ccc(O)c(O)c1 [Compound 9, 2-(3,4-dihydroxyphenyl)-2-methylpropanal oxime] | 70
CC(C)(C#N)c1ccc(O)c(O)c1 [Compound 10, 2-(3,4-dihydroxyphenyl)-2-methylpropanenitrile] | 115

Tested on: T-lymphoblastic leukemia cell line Molt-4
Assay: Cell viability, trypan blue exclusion, Molt-4
Assay type: cell-based, human
Settings: 72 hours incubation
Description: as §1

SMILES | IC50 [µM]
C=CCc1cc(O)c(O)cc1CC=C [Compound 2, 4,5-diallylbenzene-1,2-diol] | 30
C=CCc1ccc(O)c(O)c1CC=C [Compound 3, 3,4-diallylbenzene-1,2-diol] | 50
C=CCc1ccc(OC(C)=O)c(OC(C)=O)c1 [Compound 7, 4-allyl-1,2-phenylene diacetate] | 15

Same assay, conditions: Homo sapiens, MOLT-4, 72 h, 72 hours incubation

SMILES | IC50 [µM]
C=CCc1cc(O)c(O)cc1CC=C [Compound 2, 4,5-diallylbenzene-1,2-diol] | 15 to 50
C=CCc1ccc(OC(C)=O)c(OC(C)=O)c1 [Compound 7, 4-allyl-1,2-phenylene diacetate] | 15 to 50
CC(C)(C=NO)c1ccc(O)c(O)c1 [Compound 9, 2-(3,4-dihydroxyphenyl)-2-methylpropanal oxime] | 70

Tested on: prostate cancer cell line PC-3
Assay: Cell viability, trypan blue exclusion, PC-3
Assay type: cell-based, human
Settings: 72 hours incubation
Description: as §1

SMILES | IC50 [µM]
C=CCc1ccc(OC(C)=O)c(OC(C)=O)c1 [Compound 7, 4-allyl-1,2-phenylene diacetate] | 25

Same assay, conditions: Homo sapiens, 72 h, 72 hours incubation

SMILES | IC50 [µM]
C=CCc1cc(O)c(O)cc1CC=C [Compound 2, 4,5-diallylbenzene-1,2-diol] | 25 to 70
C=CCc1ccc(O)c(O)c1CC=C [Compound 3, 3,4-diallylbenzene-1,2-diol] | 25 to 70
C=CCc1ccc(OC(C)=O)c(OC(C)=O)c1 [Compound 7, 4-allyl-1,2-phenylene diacetate] | 25 to 70
CC(C)(C=NO)c1ccc(O)c(O)c1 [Compound 9, 2-(3,4-dihydroxyphenyl)-2-methylpropanal oxime] | 80
CC(C)(C#N)c1ccc(O)c(O)c1 [Compound 10, 2-(3,4-dihydroxyphenyl)-2-methylpropanenitrile] | 120

Tested on: acute myeloid leukemia cell line U937
Assay: Cell viability, trypan blue exclusion, U937
Assay type: cell-based
Settings: Homo sapiens, U-937, 72 hours incubation
Description: as §1

SMILES | IC50 [µM]
C=CCc1ccc(OC(C)=O)c(OC(C)=O)c1 [Compound 7, 4-allyl-1,2-phenylene diacetate] | 13
CC(C)(C#N)c1ccc(O)c(O)c1 [Compound 10, 2-(3,4-dihydroxyphenyl)-2-methylpropanenitrile] | 110

Tested on: pancreatic cancer cell line MIA PaCa-2
Assay: Cell viability, trypan blue exclusion, MIA PaCa-2
Assay type: cell-based, human
Settings: 72 hours incubation, read-out: Activity (IC50) MIAPaCa-2
Description: as §1

SMILES | IC50 [µM]
C=CCc1ccc(O)c(O)c1CC=C [Compound 3, 3,4-diallylbenzene-1,2-diol] | 70
C=CCc1ccc(OC(C)=O)c(OC(C)=O)c1 [Compound 7, 4-allyl-1,2-phenylene diacetate] | 30

Same assay, conditions: Homo sapiens, MIA PaCa-2, 72 h, 72 hours incubation, read-out: Activity (IC50) MIAPaCa-2

SMILES | IC50 [µM]
C=CCc1cc(O)c(O)cc1CC=C [Compound 2, 4,5-diallylbenzene-1,2-diol] | 30 to 70
C=CCc1ccc(OC(C)=O)c(OC(C)=O)c1 [Compound 7, 4-allyl-1,2-phenylene diacetate] | 30 to 70
CC(C)(C=NO)c1ccc(O)c(O)c1 [Compound 9, 2-(3,4-dihydroxyphenyl)-2-methylpropanal oxime] | 85
CC(C)(C#N)c1ccc(O)c(O)c1 [Compound 10, 2-(3,4-dihydroxyphenyl)-2-methylpropanenitrile] | 120

Tested on: Normal human peripheral blood mononuclear cells (PBMC)
Assay: Cell viability, trypan blue exclusion, normal PBMC
Assay type: cell-based
Settings: 72 hours incubation
Description: as §1

SMILES | IC50 [µM]
C=CCc1ccc(O)c(O)c1CC=C [Compound 3, 3,4-diallylbenzene-1,2-diol] | 80
C=CCc1ccc(OC(C)=O)c(OC(C)=O)c1 [Compound 7, 4-allyl-1,2-phenylene diacetate] | 70
CC(C)(C=NO)c1ccc(O)c(O)c1 [Compound 9, 2-(3,4-dihydroxyphenyl)-2-methylpropanal oxime] | 100
CC(C)(C#N)c1ccc(O)c(O)c1 [Compound 10, 2-(3,4-dihydroxyphenyl)-2-methylpropanenitrile] | 150
